Measured values taken from patent publication US9844546B2, “Antibody against human HIF hydroxylase” (OXFORD UNIVERSITY INNOVATION LIMITED, priority 2001, dated 2017).

Columns and labels:
[1] = molecular target: T1, HIF-1α/pVHL interaction (Homo sapiens, UniProt P40337); assay: Polypeptide blocking assay of HIF-1α and pVHL.HA IVTT mixture, anti-HA immunoprecipitation; assay type: binding
T1 construct: made in house; host or cells: TNT rabbit reticulocyte lysate (Promega), in vitro transcription/translation
Description: Further studies were performed using synthetic polypeptides as inhibitors of the HIF-1α/pVHL interaction (23). […] Results for a series of polypeptides derived from this domain are summarized in FIG. 1B and implicate a similar minimal interaction domain. […] This polypeptide comprises HIF-1α polypeptide residues 556 to 574 and its ability to block binding following exposure to a variety of direct oxidation conditions was assessed.
We synthesized a polypeptide (HIF-1α residues 556-574), containing a trans-4-hydroxy-S-proline residue at position 564 (19:Pro564Hyp), since the trans-4-hydroxylation is the commonest enzymatic proline oxidation (25). A polypeptide blocking assay was carried out using the 19:Pro564Hyp modified polypeptide and, as a control, the unmodified polypeptide without the trans-4-hydroxylation (19:WT). The 19:WT polypeptide was either incubated with cell extract before the binding assay or was untreated. The 19:Pro564Hyp polypeptide was added to a mixture of HIF-1α and pVHL-HA IVTTs at a concentration of 1, 0.25, 0.05 or 0.01 μM and the cell extract treated or untreated 19:WT polypeptide at a concentration of 0.5 μM. Interaction of HIF-1α with pVHL was then assayed by anti-HA immunoprecipitation. […] A pVHL capture assay was then carried out using biotinylated synthetic polypeptides. The same polypeptides, 19:Pro564Hyp and 19:WT were assessed for the ability to capture wild type or mutant (Pro86His) pVHL. […] In both cases capture was specific for wild type, as opposed to mutant, pVHL.
• 1. G. L. Semenza, Genes Dev 14, 1983-91. (2000). • 2. N. V. Iyer, et al., Genes Dev. 12, 149-162 (1997). • 3. E. Maltepe, J. V. Schmidt, D. Baunoch, C. A. Bradfield, M. C. Simon, Nature 386, 403-407 (1997). • 4. G. L. Wang, B.-H. Jiang, E. A. Rue, G. L. Semenza, Proc. Natl. Acad. Sci. USA 92, 5510-5514 (1995). • 5. S. Salceda, J. Caro, J. Biol. Chem. 272, 22642-22647 (1997). • 6. L. E. Huang, J. Gu, M. Schau, H. F. Bunn, Proc. Natl. Acad. Sci. USA 95, 7987-7992 (1998). • 7. M. S. Wiesener, et al., Blood 92, 2260-2268 (1998). • 8. P. H. Maxwell, et al., Nature 399, 271-275 (1999). • 9. K. Iwai, et al., Proc. Natl. Acad. Sci. USA 96, 12436-12441 (1999). • 10. J. Lisztwan, G. Imbert, C. Wirbelauer, M. Gstaiger, W. Krek, Genes Dev 13, 1822-33 (1999). • 11. M. E. Cockman, et al., J Biol Chem (2000). • 12. M. Ohh, et al., Nat Cell Biol 2, 423-7. (2000). • 13. T. Kamura, et al., Proc Natl Acad Sci USA 97, 10430-5. (2000). • 14. K. Tanimoto, Y. Makino, T. Pereira, L. Poellinger, Embo J 19, 4298-309. (2000). • 15. M. A. Goldberg, S. P. Dunning, H. F. Bunn, Science 242, 1412-1415 (1988). • 16. G. L. Wang, G. L. Semenza, Blood 82, 3610-3615 (1993). • 17. G. L. Semenza, Cell 98, 281-284 (1999). • 18. Hypoxia (<0.1% oxygen) was obtained in a workstation with O2, CO2 and temperature control (Ruskinn Technologies, Leeds, UK). For hypoxic harvest, buffers were preincubated in the chamber overnight. RCC4-VHL.HA, labelling conditions and co-immunoprecipitation assays have been described previously (11); in the current study 12.5 μM MG132 was used for proteasomal inhibition. For standard harvest, the cells were removed from the chamber after hypoxic exposure, prior to cell lysis. Co-immunoprecipitation assays on all lysates were performed at 4° C. under ambient oxygen conditions. […] When programming in hypoxia, reaction mix was preincubated in the workstation for 10 minutes before addition of the DNA template. […]

[2] = system: collagen prolyl-hydroxylase (CPH); details: cited from earlier work
[3] = system: HIF; assay: Induction of HIF in tissue culture by esterified equivalents; assay type: cell-based; details: In-vivo esterified equivalent
[4] = system: HIF hydroxylase (HPH activity); assay: HIF hydroxylase (HPH) inhibition, statements of the description; assay type: biochemical
[5] = system: HIF-α prolyl-hydroxylase (HIF-PH) of cell extract; assay: Modifying activity (HIF-PH) of cell extract on HIF substrate (Gal/HIF-1α549-582/VP16 or 19:WT), pVHL capture assay; assay type: biochemical, mammalian; details: for Disruption of HIF-VHL interaction: In-vitro inhibitor; for pVHL binding after treatment of Gal-Hif549-582-VP16 with cell extract in the presence of inhibitor: SDS-PAGE and autoradiography; for effect of pretreatment of extracts on modifying activity: clotrimazole 10 μM, methyl-viologen 1 mM, NADase 20 mU/ml
Description: The unlabelled HIF-1α substrate was immunopurified on beads, washed, and aliquots incubated under different test conditions in buffer or cell extract. After further washing, the beads were assayed for ability to interact with 35-S labelled pVHL IVTT (21) which was then visualised by fluorography.
The capture of labelled pVHL by different HIF substrates was monitored after exposure to various test conditions.
We went on to test a series of 2-oxoglutarate analogues which act as competitive inhibitors of this class of enzyme (29) for ability to inhibit HIF-PH as assessed by the ability of cell extracts to modify either HIF polypeptide (19:WT) or a HIF fusion protein (Gal/HIF-1α549-582/VP16) so as to promote pVHL capture. […] In one such experiment the effect of N-oxalylglycine on pVHL capture by a biotinylated HIF polypeptides as substrate was monitored. The WT:19 and 19:Pro564Hyp polypeptides described above were used as substrates. […] The effect of dimethyl-oxalyglycine on HIF-1α expression was also studied. HIF-1α immunoblot analysis of extracts of Hep3B and U2OS cells exposed to dimethyl-oxalylgylcine (0, 0.1 or 1.0 mM) for 6 hours was carried out. […]

T1 sequence (P40337 whole entry): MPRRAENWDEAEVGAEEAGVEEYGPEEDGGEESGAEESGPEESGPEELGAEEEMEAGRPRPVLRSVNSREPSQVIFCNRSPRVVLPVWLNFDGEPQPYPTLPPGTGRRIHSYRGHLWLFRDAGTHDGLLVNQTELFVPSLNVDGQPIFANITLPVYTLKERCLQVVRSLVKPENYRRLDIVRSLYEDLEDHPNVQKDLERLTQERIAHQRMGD

34 residue sequence encompassing amino acids 549-582: synthetic polypeptide, HIF-1α residues 549-582
blocking of HIF-1α/pVHL interaction by polypeptide after exposure to cell extract ([1]; cell extract supplemented with Fe(II)): blocking activity was strikingly induced
blocking of HIF-1α/pVHL interaction by polypeptide not exposed to cell extract ([1]; untreated polypeptide): unable to block interaction

CC(NC(=O)C(=O)O)C(=O)O (racemic) [(RS)-N-oxaloalanine]
inhibition of CPH [2]: poor inhibitor

CCOC(=O)c1ccnc(C(=O)OCC)c1 [2, 4 diethylpyridine dicarboxylate, 2,4-diethylpyridine dicarboxylate]
Induction of HIF in tissue culture [3]: No
inhibition of CPH [2]: known CPH inhibitor
inhibition of HIF hydroxylase / HPH [4]: found not to inhibit HPH

O=C(O)c1ccnc(C(=O)O)c1 [2, 4 pyridine dicarboxylic acid]
Disruption of HIF-VHL interaction [5]: Yes

CCOC(=O)c1ccc(C(=O)OCC)nc1 [2, 5 diethylpyridine dicarboxylate]
Induction of HIF in tissue culture [3]: No

CCOC(=O)c1cccc(C(=O)OCC)n1 [2, 6 diethylpyridine dicarboxylate]
Induction of HIF in tissue culture [3]: No

CC(C)[C@H](NC(=O)C(=O)O)C(=O)O [(S)-oxalovaline]
inhibition of HIF hydroxylase / HPH [4]: little or no activity

COC(=O)CNC(=S)C(=O)OC [Is1]
pVHL binding after treatment of Gal-Hif549-582-VP16 with cell extract in the presence of inhibitor [5]: reduced pVHL binding

O=C(O)CNC(=S)C(=O)O [Is3]
pVHL binding after treatment of Gal-Hif549-582-VP16 with cell extract in the presence of inhibitor [5]: reduced pVHL binding

COCCNC(=O)c1ccncc1C(=O)NCCOC [Is8]
pVHL binding after treatment of Gal-Hif549-582-VP16 with cell extract in the presence of inhibitor [5]: reduced pVHL binding

COC(=O)C(=O)NC(C)C(=O)OC [Methylmethoxalyl-D/L-alanine]
Induction of HIF in tissue culture [3]: No

C[C@@H](NC(=O)C(=O)O)C(=O)O [N-oxalyl-2R-alanine]
inhibition of modifying activity of cell extract on 19:WT (pVHL capture) ([5]; N-oxalylglycine 0.2-1 mM, overcome by 5 mM 2-oxoglutarate): not
inhibition of HIF hydroxylase / HPH [4]: also an inhibitor

CC(C)[C@H](NC(=O)C(=O)O)C(=O)O [NK80]
Disruption of HIF-VHL interaction [5]: No

C[C@H](NC(=O)C(=O)O)C(=O)O [NK81, oxalyl L-alanine]
Disruption of HIF-VHL interaction [5]: Yes

C[C@@H](NC(=O)C(=O)O)C(=O)O [NK82, oxalyl D-alanine]
Disruption of HIF-VHL interaction [5]: No

O=C(O)CNC(=O)C(=O)O [NK87, oxalylglycine]
Disruption of HIF-VHL interaction [5]: Yes
pVHL binding after treatment of Gal-Hif549-582-VP16 with cell extract in the presence of inhibitor [5]: reduced binding of pVHL
pVHL binding after treatment with cell extract in the presence of inhibitor and additional 2-oxoglutarate ([5]; plus additional 2-oxoglutarate): strong binding

O=C(NO)c1ccccc1 [benzohydroxamic acid]
pVHL binding after treatment of Gal-Hif549-582-VP16 with cell extract in the presence of inhibitor [5]: reduced pVHL binding

Clc1ccccc1C(c1ccccc1)(c1ccccc1)n1ccnc1 [clotrimazole, reference compound]
effect of pretreatment of extracts on modifying activity [5]: did not significantly affect activity

CCOC(=O)c1ccc(O)c(O)c1 [ethyl dihydroxybenzoate]
pVHL binding after treatment of Gal-Hif549-582-VP16 with cell extract in the presence of inhibitor [5]: reduced pVHL binding

N[C@@H](CCC(=O)N[C@@H](CS)C(=O)NCC(=O)O)C(=O)O [glutathione, gamma-glutamyl-cysteinyl-glycine]
inhibition of HIF hydroxylase / HPH [4]: inhibitors of HPH

C[n+]1ccc(-c2cc[n+](C)cc2)cc1 [methyl-viologen, reference compound]
effect of pretreatment of extracts on modifying activity [5]: did not significantly affect activity
